Laboratory results: ChEMBL document CHEMBL3885861, “Open TG-GATES”

Species on record: Rattus norvegicus
Test: Open TG-GATES - Regimen: Daily Repeat
Format: toxicity, organism-based, Sprague-Dawley
Parameters: regimen Daily Repeat, gender Male, age 6 weeks
Conditions: in vivo, po, 300 mg/kg, route gavage, dose level High; for APTT / Bas / Eos / Fbg / Hb / Ht / Lym / MCH / MCHC / MCV / Mono / Neu / PT / Plat / RBC / Ret / WBC: tissue Blood
[1] = 72 h, tissue Kidney, time 3 day
[2] = 72 h, tissue Plasma, time 3 day

Compound: CCc1oc2ccccc2c1C(=O)c1cc(I)c(O)c(I)c1 [BENZIODARONE]
- TERMINAL_BW (72 h, time 3 day): 237.2 g
- APTT (72 h, time 3 day): 19.4 s
- Bas (72 h, time 3 day): 0%
- Eos (72 h, time 3 day): 1%
- Fbg (72 h, time 3 day): 220.8 mg/dL
- Hb (72 h, time 3 day): 13.6 g/dL
- Ht (72 h, time 3 day): 40.1%
- Lym (72 h, time 3 day): 70.4%
- MCH (72 h, time 3 day): 22 pg
- MCHC (72 h, time 3 day): 33.9%
- MCV (72 h, time 3 day): 64.7 fL
- Mono (72 h, time 3 day): 9%
- Neu (72 h, time 3 day): 20%
- PT (72 h, time 3 day): 11.8 s
- Plat (72 h, time 3 day): 119.8 x10_4/uL
- RBC (72 h, time 3 day): 619.2 x10_4/ul
- Ret (72 h, time 3 day): 7.3%
- WBC (72 h, time 3 day): 107.3 x10_2/uL
- KIDNEY_L [1]: 1 g
- KIDNEY_R [1]: 1 g
- KIDNEY_TOTAL [1]: 2.1 g
- LIVER (72 h, tissue Liver, time 3 day): 15.3 g
- A/G [2]: 2
- ALP [2]: 951 IU/L
- ALT [2]: 42.6 IU/L
- AST [2]: 69.6 IU/L
- BUN [2]: 16.4 mg/dL
- CRE [2]: 0.6 mg/dL
- Ca [2]: 10.6 mg/dL
- Cl [2]: 104.8 meq/L
- DBIL [2]: 0.038 mg/dL
- GLC [2]: 178.4 mg/dL
- IP [2]: 7 mg/dL
- K [2]: 4.3 meq/L
- LDH [2]: 121.6 IU/L
- Na [2]: 141.4 meq/L
- PL [2]: 132.4 mg/dL
- RALB [2]: 3.8 g/dL
- TBIL [2]: 0.3 mg/dL
- TC [2]: 74.2 mg/dL
- TG [2]: 34.2 mg/dL
- TP [2]: 5.7 g/dL
- gamma-GTP [2]: 1.4 IU/L
- TERMINAL_BW ([…], time 7 day): 277.5 g
- TERMINAL_BW ([…], time 14 day): 313.1 g
- TERMINAL_BW ([…], time 28 day): 377.5 g
- APTT ([…], time 7 day): 18.6 s
- Bas ([…], time 7 day): 0%
- Eos ([…], time 7 day): 0.6%
- Fbg ([…], time 7 day): 217 mg/dL
- Hb ([…], time 7 day): 13.9 g/dL
- Ht ([…], time 7 day): 40.9%
- Lym ([…], time 7 day): 82.2%
- MCH ([…], time 7 day): 21.5 pg
- MCHC ([…], time 7 day): 33.9%
- MCV ([…], time 7 day): 63.5 fL
- Mono ([…], time 7 day): 6.8%
- Neu ([…], time 7 day): 10.8%
- PT ([…], time 7 day): 12 s
- Plat ([…], time 7 day): 125.7 x10_4/uL
- RBC ([…], time 7 day): 644 x10_4/ul
- Ret ([…], time 7 day): 4.3%
- WBC ([…], time 7 day): 103.8 x10_2/uL
- APTT ([…], time 14 day): 19.3 s
- Bas ([…], time 14 day): 0%
- Eos ([…], time 14 day): 1%
- Fbg ([…], time 14 day): 211.8 mg/dL
- Hb ([…], time 14 day): 14.4 g/dL
- Ht ([…], time 14 day): 42.6%
- Lym ([…], time 14 day): 82.8%
- MCH ([…], time 14 day): 21.1 pg
- MCHC ([…], time 14 day): 33.9%
- MCV ([…], time 14 day): 62.1 fL
- Mono ([…], time 14 day): 6%
- Neu ([…], time 14 day): 10.8%
- PT ([…], time 14 day): 12 s
- Plat ([…], time 14 day): 116.1 x10_4/uL
- RBC ([…], time 14 day): 685.4 x10_4/ul
- Ret ([…], time 14 day): 2.8%
- WBC ([…], time 14 day): 121 x10_2/uL
- APTT ([…], time 28 day): 20.8 s
- Bas ([…], time 28 day): 0%
- Eos ([…], time 28 day): 1.6%
- Fbg ([…], time 28 day): 223 mg/dL
- Hb ([…], time 28 day): 15 g/dL
- Ht ([…], time 28 day): 44.3%
